Data published in patent US9273092B2, “Selective binding compounds” (RIOGIN Corporation, priority 2011, dated 2016).

Each sequence was assayed against hSA (Homo sapiens, UniProt P02768) (assay: hSA binding assay (hSA-coated microtiter plate, streptavidin-polyHRP/ABTS, OD 405 nm)). Conditions: not given.
Experimental: hSA binding assay. Microtiter 96 well plate is coated, overnight at 4° C., using […] of a solution of hSA in PBS ([…]). Plate is washed with PBS and blocked, for 1 hours, using 150 ml, per well, of a 10% solution of Tween 20 in water. After 1 hour the wells are washed with PBS. The hSA binders tested are dissolved in PBS, 100 ml of the tested solutions are then added in the well and incubated for 2 hours. After 2 hours, the solution are discarded and the wells are washed using PBS, 0.1% Tween 20. 100 ml of a solution of streptavidin-polyHRP in PBS 1.375% casein is added to the wells and incubated for 1 more hours. Finally wells are washed with PBS, 0.1% Tween 20, and 100 ml ABTS in phosphate-citrate buffer with sodium perborate is added. After a few minutes OD are read at 405 nm.
A plurality of compounds according to the invention were prepared. All of the compounds contained the Cys-Pro-Cys moiety. These compounds and an assay control were tested using the above procedure. Some compounds were tested twice (Exp 1 and Exp 2).

Sequence of hSA (P02768 25-609): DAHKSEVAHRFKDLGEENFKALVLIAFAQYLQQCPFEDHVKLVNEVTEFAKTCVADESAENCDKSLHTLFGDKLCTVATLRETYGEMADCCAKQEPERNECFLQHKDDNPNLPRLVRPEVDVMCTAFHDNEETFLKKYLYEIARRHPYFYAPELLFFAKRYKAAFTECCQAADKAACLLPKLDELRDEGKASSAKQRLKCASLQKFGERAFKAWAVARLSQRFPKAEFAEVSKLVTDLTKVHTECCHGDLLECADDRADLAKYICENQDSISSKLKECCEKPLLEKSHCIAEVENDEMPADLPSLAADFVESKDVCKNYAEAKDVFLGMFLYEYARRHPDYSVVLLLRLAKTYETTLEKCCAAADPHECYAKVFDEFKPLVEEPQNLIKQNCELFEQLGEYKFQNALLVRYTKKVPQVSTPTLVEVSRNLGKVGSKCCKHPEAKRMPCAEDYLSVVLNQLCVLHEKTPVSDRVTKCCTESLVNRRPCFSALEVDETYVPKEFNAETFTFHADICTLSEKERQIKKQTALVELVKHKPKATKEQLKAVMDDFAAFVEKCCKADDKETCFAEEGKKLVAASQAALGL

Sequence	Binding, Exp 2	Binding, Exp 1
RLIEDTCPCLW [Compound 27, RLIEDT-LW, "-" represents cysteine-proline-cysteine]		0.08956
KLIEDICPCQW [Compound 48, KLIEDI-QW, "-" represents cysteine-proline-cysteine]		0.2445
KLVEDICPCLW [Compound 41, KLVEDI-LW, "-" represents cysteine-proline-cysteine]		0.1635
KLIEDACPCLW [Compound 39, KLIEDA-LW, "-" represents cysteine-proline-cysteine]		0.153
RLIENICPCLW [Compound 14, RLIENI-LW, "-" represents cysteine-proline-cysteine]		0.05331
RLIKDICPCLW [Compound 36, RLIKDI-LW, "-" represents cysteine-proline-cysteine]		0.1404
KLTEDICPCLW [Compound 24, KLTEDI-LW, "-" represents cysteine-proline-cysteine]		0.07352
RLIEDICPCFW [Compound 10, RLIEDI-FW, "-" represents cysteine-proline-cysteine]		0.04544
KLIEDICPCVW [Compound 15, KLIEDI-VW, "-" represents cysteine-proline-cysteine]		0.05545
KLIEEICPCLW [Compound 28, KLIEEI-LW, "-" represents cysteine-proline-cysteine]		0.09642
RLIEDQCPCLW [Compound 16, RLIEDQ-LW, "-" represents cysteine-proline-cysteine]		0.06092
KQIEDICPCLW [Compound 47, KQIEDI-LW, "-" represents cysteine-proline-cysteine]	0.581	0.2411
KLIEDFCPCLW [Compound 44, KLIEDF-LW, "-" represents cysteine-proline-cysteine]		0.1836
RVIEDICPCLW [Compound 19, RVIEDI-LW, "-" represents cysteine-proline-cysteine]	0.2112	0.06391
RLIEVICPCLW [Compound 37, RLIEVI-LW, "-" represents cysteine-proline-cysteine]		0.1503
RLIDDICPCLW [Compound 6, RLIDDI-LW, "-" represents cysteine-proline-cysteine]	0.2179	0.03897
RLIEDICPCLW [Compound 50, RLIEDI-LW, "-" represents cysteine-proline-cysteine]	0.3359	0.2855
RLIEDICPCLV [Compound 43, RLIEDI-LV, "-" represents cysteine-proline-cysteine]		0.1701
KLIEVICPCLW [Compound 5, KLIEVI-LW, "-" represents cysteine-proline-cysteine]		0.03868
KLIADICPCLW [Compound 46, KLIADI-LW, "-" represents cysteine-proline-cysteine]	0.1074	0.2126

Sequence	Binding, Exp 2	Binding, Exp 1
KLIEDICPCFW [Compound 30, KLIEDI-FW, "-" represents cysteine-proline-cysteine]		0.1033
KLIEDICPCLQ [Compound 42, KLIEDI-LQ, "-" represents cysteine-proline-cysteine]		0.1651
KLISDICPCLW [Compound 3, KLISDI-LW, "-" represents cysteine-proline-cysteine]		0.02504
KLFEDICPCLW [Compound 33, KLFEDI-LW, "-" represents cysteine-proline-cysteine]		0.1213
KLIEDICPCLK [Compound 21, KLIEDI-LK, "-" represents cysteine-proline-cysteine]		0.06947
RLVEDICPCLW [Compound 20, RLVEDI-LW, "-" represents cysteine-proline-cysteine]		0.06407
RLIQDICPCLW [Compound 18, RLIQDI-LW, "-" represents cysteine-proline-cysteine]		0.06261
RLIADICPCLW [Compound 4, RLIADI-LW, "-" represents cysteine-proline-cysteine]	0.1216	0.03473
KLQEDICPCLW [Compound 31, KLQEDI-LW, "-" represents cysteine-proline-cysteine]		0.1033
KLIEDICPCAW [Compound 25, KLIEDI-AW, "-" represents cysteine-proline-cysteine]		0.08281
RLTEDICPCLW [Compound 7, RLTEDI-LW, "-" represents cysteine-proline-cysteine]		0.03902
KTIEDICPCLW [Compound 22, KTIEDI-LW, "-" represents cysteine-proline-cysteine]	0.1476	0.06947
KLLEDICPCLW [Compound 9, KLLEDI-LW, "-" represents cysteine-proline-cysteine]		0.04197
RLEEDICPCLW [Compound 17, RLEEDI-LW, "-" represents cysteine-proline-cysteine]		0.0625
KFIEDICPCLW [Compound 13, KFIEDI-LW, "-" represents cysteine-proline-cysteine]	0.4961	0.04979
KLIQDICPCLW [Compound 51, KLIQDI-LW, "-" represents cysteine-proline-cysteine]	0.1771	0.3066
RLIEDICPCTW [Compound 32, RLIEDI-TW, "-" represents cysteine-proline-cysteine]		0.1126
RFIEDICPCLW [Compound 8, RFIEDI-LW, "-" represents cysteine-proline-cysteine]	0.1971	0.04142
RLIEDACPCLW [Compound 38, RLIEDA-LW, "-" represents cysteine-proline-cysteine]		0.1522

Other lines, results leading:

Binding, Exp 2	Binding, Exp 1	Sequence
0.1395		KLIVDICPCLW [Compound 95, KLIVDI-LW, "-" represents cysteine-proline-cysteine]
	5.789	RLIEDICPCLQ [Compound 65, RLIEDI-LQ, "-" represents cysteine-proline-cysteine]
0.257		KEIEDICPCLW [Compound 93, KEIEDI-LW, "-" represents cysteine-proline-cysteine]
	1.877	RLIEDICPCLH [Compound 63, RLIEDI-LH, "-" represents cysteine-proline-cysteine]
	0.5209	KLIEDQCPCLW [Compound 55, KLIEDQ-LW, "-" represents cysteine-proline-cysteine]
0.2247		RLISDICPCLW [Compound 98, RLISDI-LW, "-" represents cysteine-proline-cysteine]
	0.8196	RLIEDECPCLW [Compound 58, RLIEDE-LW, "-" represents cysteine-proline-cysteine]
	1.193	RLIEDICPCQW [Compound 60, RLIEDI-QW, "-" represents cysteine-proline-cysteine]
0.1598		RTIEDICPCLW [Compound 99, RTIEDI-LW, "-" represents cysteine-proline-cysteine]
0.2479		REIEDICPCLW [Compound 96, REIEDI-LW, "-" represents cysteine-proline-cysteine]
	0.3336	RLIEDVCPCLW [Compound 54, RLIEDV-LW, "-" represents cysteine-proline-cysteine]
	1.031	RLIEDICPCAW [Compound 59, RLIEDI-AW, "-" represents cysteine-proline-cysteine]
0.2342	1.415	KIIEDICPCLW [Compound 62, KIIEDI-LW, "-" represents cysteine-proline-cysteine]
0.1137	2.575	KVIEDICPCLW [Compound 64, KVIEDI-LW, "-" represents cysteine-proline-cysteine]
	1.238	RLIESICPCLW [Compound 61, RLIESI-LW, "-" represents cysteine-proline-cysteine]
	0.3109	KLIEYICPCLW [Compound 53, KLIEYI-LW, "-" represents cysteine-proline-cysteine]
	0.5311	KLIEDVCPCLW [Compound 56, KLIEDV-LW, "-" represents cysteine-proline-cysteine]

Same assay, conditions: given only for compounds with an Exp 2 value

Sequence	Bmax
KQIEDICPCLW [Compound 47, KQIEDI-LW, "-" represents cysteine-proline-cysteine]	1.4
RVIEDICPCLW [Compound 19, RVIEDI-LW, "-" represents cysteine-proline-cysteine]	1.089
RLIDDICPCLW [Compound 6, RLIDDI-LW, "-" represents cysteine-proline-cysteine]	1.256
RLIEDICPCLW [Compound 50, RLIEDI-LW, "-" represents cysteine-proline-cysteine]	1.14
KLIADICPCLW [Compound 46, KLIADI-LW, "-" represents cysteine-proline-cysteine]	1.077
RLIADICPCLW [Compound 4, RLIADI-LW, "-" represents cysteine-proline-cysteine]	1.036
KTIEDICPCLW [Compound 22, KTIEDI-LW, "-" represents cysteine-proline-cysteine]	1.427
KFIEDICPCLW [Compound 13, KFIEDI-LW, "-" represents cysteine-proline-cysteine]	1.198
KLIQDICPCLW [Compound 51, KLIQDI-LW, "-" represents cysteine-proline-cysteine]	1.048
RFIEDICPCLW [Compound 8, RFIEDI-LW, "-" represents cysteine-proline-cysteine]	1.136

Other lines, results leading:

Bmax	Sequence
1.19	KLIVDICPCLW [Compound 95, KLIVDI-LW, "-" represents cysteine-proline-cysteine]
1.425	KEIEDICPCLW [Compound 93, KEIEDI-LW, "-" represents cysteine-proline-cysteine]
1.301	RLISDICPCLW [Compound 98, RLISDI-LW, "-" represents cysteine-proline-cysteine]
0.6151	RTIEDICPCLW [Compound 99, RTIEDI-LW, "-" represents cysteine-proline-cysteine]
0.8746	REIEDICPCLW [Compound 96, REIEDI-LW, "-" represents cysteine-proline-cysteine]
0.8075	KIIEDICPCLW [Compound 62, KIIEDI-LW, "-" represents cysteine-proline-cysteine]
0.3906	KVIEDICPCLW [Compound 64, KVIEDI-LW, "-" represents cysteine-proline-cysteine]
